Literature values, collected in patent publication US20220054371A1, “TOOTH CLEANING COMPOSITION, TOOTH CLEANING AGENT, DENTAL CALCULUS REMOVAL ACCELERATOR, AND TOOTH CLEANING METHOD” (TOKUYAMA DENTAL CORPORATION, priority 2018, published 2022).

Conditions: 2.0 mg dental calculi in 1 ml of 10% aqueous solution, pH 3.1, 14 minutes

CC(O)C(=O)O (stereo not shown) [lactic acid]
weight reduction of dental calculi: 1.0 mg
